Data: patent EP4431512A1, “NOVEL DUAL NK-1/NK-3 RECEPTOR ANTAGONISTS” (Bayer Consumer Care AG, priority 2023, dated 2024)

Columns and labels:
[1] = biological target: T1, NK1 receptors (Homo sapiens, UniProt P25103); assay: NK1 receptor functional assay (antagonist effect, intracellular Ca2+, fluorimetry); assay type: cell-based; set-up: Human astrocytoma U373MG cells do endogenously express NK1 receptors; endogenous in cells; host or cells: U373MG human astrocytoma cells; conditions: result in words
Description: (§1) Cellular antagonist effect was calculated as a %-inhibition of reference agonist response for each target.
Human NK1 receptor antagonistic activity assays were performed by measuring antagonistic effects of the compounds of the formula on the reduction agonist induced intracellular [Ca^2+] calcium concentrations in the human astrocytoma cell line U373MG using fluorimetric detection. Human astrocytoma U373MG cells do endogenously express NK1 receptors and were used in the assay according to Eistetter, H.R. et al. (1992), Glia, 6: 89-95 and [Sar^9,Met(O2)^11]-Substance P was used as agonistic stimulus of the NK1 receptor in the cells and assay. Relevant particulars of the assay are outlined in the table below.
(§2) For the antagonists, the apparent dissociation constants (KB ) were calculated using the modified Cheng Prusoff equation KB = (IC50)/(1 + (A/EC50A)) [formula] where A = concentration of reference agonist in the assay, and EC50A = EC50 value of the reference agonist.

[2] = biological target: T2, Human NK3 receptor (Homo sapiens, UniProt P29371); assay: NK3 receptor functional assay (antagonist effect, intracellular Ca2+, fluorimetry); assay type: cell-based; set-up: expressed in transfected cells; host or cells: CHO cells; conditions: result in words; human NK3 receptors
T2 sequence (P29371 1-465): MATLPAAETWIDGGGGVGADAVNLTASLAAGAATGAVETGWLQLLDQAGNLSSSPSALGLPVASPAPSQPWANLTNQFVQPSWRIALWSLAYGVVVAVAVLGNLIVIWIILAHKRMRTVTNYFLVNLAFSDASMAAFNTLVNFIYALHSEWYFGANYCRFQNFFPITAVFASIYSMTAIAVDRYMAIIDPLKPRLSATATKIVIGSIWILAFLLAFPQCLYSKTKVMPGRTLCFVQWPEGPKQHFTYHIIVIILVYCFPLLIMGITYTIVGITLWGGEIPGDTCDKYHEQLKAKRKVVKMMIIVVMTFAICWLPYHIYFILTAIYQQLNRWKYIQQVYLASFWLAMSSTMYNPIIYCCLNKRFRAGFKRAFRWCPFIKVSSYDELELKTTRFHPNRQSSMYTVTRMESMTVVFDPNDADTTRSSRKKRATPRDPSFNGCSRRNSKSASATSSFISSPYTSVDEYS
Description: as §1
Human NK3 receptor antagonistic activity was determined by measuring antagonistic effects of the compounds of the formula on the reduction of agonist induced intracellular [Ca^2+] concentrations in CHO cells recombinantly expressing […] using an fluorimetric detection method. The assay was adapted from Medhurst, A.D. et al. (1999), Brit. J. Pharmacol., 128: 627-636. As an agonist to induce intracellular [Ca^2+] [MePhe^7]-NKB was used as outlined in the overview table below.
as §2

[3] = biological target: T1, NK1 receptors; assay: NK1 receptor binding assay (agonist radioligand, scintillation counting); set-up: that is endogenously expressing human NK1 receptors; endogenous in cells; host or cells: U373 MG human astrocytoma cells (membrane preparations); conditions: NK1(h) (agonist radioligand); Hill coefficient of competition curve
From the text: A scatchard plot is used todetermine the KD.

[4] = biological target: T2, Human NK3 receptor; assay: NK3 receptor binding assay (antagonist radioligand, scintillation counting); set-up: expressed in transfected cells; host or cells: CHO cells (membrane preparations); conditions: for nH: NK3(h) (antagonist radioligand), Hill coefficient of competition curve; for binding affinities: result in words, human NK3 receptors
Description: Compound binding was calculated as a %-inhibition of the binding of a radioactively labeled ligand specific for each target.
NK3 receptor binding affinities of the compounds of the invention were determined by an scintillation counting and using membrane preparations of CHO cells recombinantly expressing human NK3 receptors (as described by Sarau, H.M. et al. (1997), J. Pharmacol. Exp. Ther., 281: 1303-1311).
The results are expressed as a percent of control specific binding (measured specific binding)/(control specific binding)*100 [formula] and as a percent inhibition of control specific binding 100−((measured specific binding)/(control specific binding)*100) [formula] obtained in the presence of the test compounds.
The IC50 values (concentration causing a half-maximal inhibition of control specific binding) and Hill coefficients (nH) were determined by non-linear regression analysis of the competition curves generated with mean replicate values using Hill equation curve fitting Y = D + [(A−D)/(1 + ((C/C50))^nH)] [formula] where Y = specific binding, A = left asymptote of the curve, D = right asymptote of the curve, C = compound concentration, C50 =IC50, and nH = slope factor. This analysis was performed using software developed at Cerep (Hill software) and validated by comparison with data generated by the commercial software SigmaPlot® 4.0 for Windows® (^© 1997 by SPSS Inc.).
The inhibition constants (Ki) were calculated using the Cheng Prusoff equation Ki = (IC50)/((1+L/KD)) [formula] where L = concentration of radioligand in the assay, and KD = affinity of the radioligand for the receptor. A scatchard plot is used todetermine the KD.

T1 sequence (P25103 whole entry): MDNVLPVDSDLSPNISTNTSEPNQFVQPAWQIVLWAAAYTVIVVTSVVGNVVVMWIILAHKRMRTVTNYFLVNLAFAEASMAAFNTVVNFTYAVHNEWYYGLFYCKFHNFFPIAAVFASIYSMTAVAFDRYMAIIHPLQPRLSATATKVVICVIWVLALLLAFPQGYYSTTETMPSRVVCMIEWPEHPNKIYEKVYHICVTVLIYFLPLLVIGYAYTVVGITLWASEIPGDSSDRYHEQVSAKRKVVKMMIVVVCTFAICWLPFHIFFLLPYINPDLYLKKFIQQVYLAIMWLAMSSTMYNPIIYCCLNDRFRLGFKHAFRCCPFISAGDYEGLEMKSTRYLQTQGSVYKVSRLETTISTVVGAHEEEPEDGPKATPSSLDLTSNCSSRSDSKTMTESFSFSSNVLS

Row | Structure (SMILES) | antagonistic activities [1] | antagonistic activities [2] | nH [3] | nH [4] | binding affinities [4]
1 | CC1CN2C[C@@H](CO)N(c3cc(-c4ccc(F)cc4CO)c(N(C)C(=O)C(C)(C)c4cc(C(F)(F)F)cc(C(F)(F)F)c4)cn3)C[C@H]2CO1 (stereo partly drawn) [compound of formula (III), 2-[3,5-bis(trifluoromethyl)phenyl]-N-{4-[4-fluoro-2-(hydroxymethyl)phenyl]-6-[(7S,9aS)-7-(hydroxymethyl)-3-methylhexahydropyrazino[2,1-c][1,4]oxazin-8(1H)-yl]pyridin-3-yl}-N,2-dimethylpropanamide] | significant | significant | 1 | 1 | significant
2 | CN(C(=O)C(C)(C)c1cc(C(F)(F)F)cc(C(F)(F)F)c1)c1cnc(N2C[C@H]3COCCN3C[C@H]2CO)cc1-c1ccc(F)cc1CO [compound of formula (V), 2-[3,5-bis(trifluoromethyl)phenyl]-N-{4-[4-fluoro-2-(hydroxymethyl)phenyl]-6-[(7S,9aS)-7-(hydroxymethyl)hexahydropyrazino[2,1-c][1,4]oxazin-8(1H)-yl]pyridin-3-yl}-N,2-dimethylpropanamide] | significant | significant | – | – | significant
3 | Cc1cc(F)ccc1-c1cc(N2C[C@H]3COC(C)CN3C[C@H]2CO)ncc1N(C)C(=O)C(C)(C)c1cc(C(F)(F)F)cc(C(F)(F)F)c1 (stereo partly drawn) [compound of formula (IV), 2-[3,5-bis(trifluoromethyl)phenyl]-N-{4-(4-fluoro-2-methylphenyl)-6-[(7S,9aS)-7-(hydroxymethyl)-3-methylhexahydropyrazino[2,1-c][1,4]oxazin-8(1H)-yl]pyridin-3-yl}-N,2-dimethylpropanamide] | significant | significant | 1.2 | 1.3 | significant
4 | Cc1cc(F)ccc1-c1cc(N2C[C@H]3COCC[N+]3([O-])C[C@H]2CO)ncc1N(C)C(=O)C(C)(C)c1cc(C(F)(F)F)cc(C(F)(F)F)c1 (stereo partly drawn) [compound of formula (II), N-[6-[(7S,9aS)-7-(hydroxymethyl)-5-oxido-3,4,6,7,9,9a-hexahydro-1H-pyrazino[2,1-c][1,4]oxazin-5-ium-8-yl]-4-(4-fluoro-2-methyl-phenyl)-3-pyridyl]-2-[3,5-bis(trifluoromethyl)phenyl]-N,2-dimethyl-propanamide] | significant | significant | – | – | significant
